Laboratory results reported in ChEMBL document CHEMBL4334516, “Kinase Chemodiversity from the Arctic: The Breitfussins” (J Med Chem, 2019).

How the values were obtained:
[1] = test system: MRC5; experiment: Cytotoxicity in human MRC5 cells assessed as reduction in cell viability incubated for 72 hrs by MTS assay; format: cell-based; settings: MRC5, 72 h
[2] = molecular target: Serine/threonine-protein kinase pim-2 (Homo sapiens, UniProt Q9P1W9); experiment: Inhibition of PIM2 (unknown origin) by [33P]-ATP filter binding kinase assay
[3] = molecular target: Receptor-interacting serine/threonine-protein kinase 2 (Homo sapiens, UniProt O43353); experiment: Inhibition of RIPK2 (unknown origin) by [33P]-ATP filter binding kinase assay
[4] = molecular target: Serine/threonine-protein kinase SIK3 (Homo sapiens, UniProt Q9Y2K2); experiment: Inhibition of SIK3 (unknown origin) by [33P]-ATP filter binding kinase assay
[5] = molecular target: Serine/threonine-protein kinase pim-1 (Homo sapiens, UniProt P11309); experiment: Inhibition of PIM1 (unknown origin) by [33P]-ATP filter binding kinase assay
[6] = molecular target: Aurora kinase B (Homo sapiens, UniProt Q96GD4); experiment: Inhibition of Aurora B (unknown origin) by [33P]-ATP filter binding kinase assay
[7] = molecular target: T1, Serine/threonine-protein kinase 17B (Homo sapiens, UniProt O94768); experiment: Inhibition of Alexa Fluor 647-labeled ATP competitive kinase tracer binding to GST-tagged DRAK2 (unknown origin) by FRET based cell free ATP-competitive tracer displacement assay
T1 sequence (O94768 whole entry): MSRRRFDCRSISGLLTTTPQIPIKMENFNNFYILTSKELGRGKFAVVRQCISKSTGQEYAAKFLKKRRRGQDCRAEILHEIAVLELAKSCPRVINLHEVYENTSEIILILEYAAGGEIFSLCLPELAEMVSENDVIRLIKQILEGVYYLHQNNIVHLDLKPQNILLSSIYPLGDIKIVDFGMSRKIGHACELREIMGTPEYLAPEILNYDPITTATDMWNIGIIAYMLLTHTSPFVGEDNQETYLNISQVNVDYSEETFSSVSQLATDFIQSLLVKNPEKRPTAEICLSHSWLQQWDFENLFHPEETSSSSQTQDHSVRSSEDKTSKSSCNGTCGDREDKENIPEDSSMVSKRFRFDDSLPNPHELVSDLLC

[8] = test system: HT-29; experiment: Cytotoxicity in human HT-29 cells assessed as reduction in cell viability incubated for 72 hrs by MTS assay; format: functional, cell-based; settings: HT-29, 72 h
[9] = test system: A2058; experiment: Cytotoxicity in human A2058 cells assessed as reduction in cell viability incubated for 72 hrs by MTS assay; format: functional, cell-based; settings: A2058, 72 h
[10] = test system: SK-BR-3; experiment: Cytotoxicity in human SK-BR-3 cells assessed as reduction in cell viability incubated for 72 hrs by MTS assay; format: functional, cell-based; settings: SK-BR-3, 72 h
[11] = molecular target: T2, Mitogen-activated protein kinase kinase kinase 7 (Homo sapiens, UniProt O43318); experiment: Inhibition of TAK1 (unknown origin) by [33P]-ATP filter binding kinase assay
T2 sequence (O43318 whole entry): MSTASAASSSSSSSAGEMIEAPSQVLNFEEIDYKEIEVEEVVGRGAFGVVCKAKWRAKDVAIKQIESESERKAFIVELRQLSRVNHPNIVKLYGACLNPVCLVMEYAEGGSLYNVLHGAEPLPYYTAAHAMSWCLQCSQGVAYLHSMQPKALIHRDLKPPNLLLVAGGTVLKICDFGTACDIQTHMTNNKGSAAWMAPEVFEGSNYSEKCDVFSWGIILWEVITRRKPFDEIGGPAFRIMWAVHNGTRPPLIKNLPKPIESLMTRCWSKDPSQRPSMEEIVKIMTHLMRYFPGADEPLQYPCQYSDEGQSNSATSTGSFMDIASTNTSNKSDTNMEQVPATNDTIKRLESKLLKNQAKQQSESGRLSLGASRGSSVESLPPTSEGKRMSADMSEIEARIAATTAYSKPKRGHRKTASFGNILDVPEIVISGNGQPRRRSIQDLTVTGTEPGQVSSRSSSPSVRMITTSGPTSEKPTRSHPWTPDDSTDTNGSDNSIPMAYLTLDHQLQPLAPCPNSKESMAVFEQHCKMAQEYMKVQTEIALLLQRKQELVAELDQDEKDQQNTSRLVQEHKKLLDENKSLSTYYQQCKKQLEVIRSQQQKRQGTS

[12] = molecular target: T3, Aurora kinase A (Homo sapiens, UniProt O14965); experiment: Inhibition of Aurora A (unknown origin) by [33P]-ATP filter binding kinase assay
T3 sequence (O14965 whole entry): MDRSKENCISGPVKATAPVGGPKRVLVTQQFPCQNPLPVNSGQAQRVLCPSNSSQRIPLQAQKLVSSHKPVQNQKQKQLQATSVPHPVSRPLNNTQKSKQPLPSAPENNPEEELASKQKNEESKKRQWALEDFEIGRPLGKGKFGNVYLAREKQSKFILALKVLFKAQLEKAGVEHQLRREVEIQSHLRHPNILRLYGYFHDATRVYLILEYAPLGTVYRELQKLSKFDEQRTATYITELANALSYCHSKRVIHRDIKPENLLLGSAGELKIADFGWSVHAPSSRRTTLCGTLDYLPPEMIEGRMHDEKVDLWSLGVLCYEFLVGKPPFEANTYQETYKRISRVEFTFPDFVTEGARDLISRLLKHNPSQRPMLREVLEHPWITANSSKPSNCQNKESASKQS

[13] = molecular target: Mitogen-activated protein kinase kinase kinase 11 (Homo sapiens, UniProt Q16584); experiment: Inhibition of MLK3 (unknown origin) by [33P]-ATP filter binding kinase assay
[14] = test system: MOLT-4; experiment: Cytotoxicity in human MOLT4 cells assessed as reduction in cell viability incubated for 72 hrs by MTS assay; format: functional, cell-based; settings: MOLT-4, 72 h
[15] = test system: MV4-11; experiment: Cytotoxicity in human MV4-11 cells assessed as reduction in cell viability incubated for 72 hrs by MTS assay; format: functional, cell-based; settings: MV4-11, 72 h
[16] = molecular target: Mitogen-activated protein kinase kinase kinase 9 (Homo sapiens, UniProt P80192); experiment: Inhibition of MLK1 (unknown origin) by [33P]-ATP filter binding kinase assay
[17] = molecular target: T4, Serine/threonine-protein kinase 17A (Homo sapiens, UniProt Q9UEE5); experiment: Inhibition of Alexa Fluor 647-labeled ATP competitive kinase tracer binding to GST-tagged DRAK1 (unknown origin) by FRET based cell free ATP-competitive tracer displacement assay
T4 sequence (Q9UEE5 whole entry): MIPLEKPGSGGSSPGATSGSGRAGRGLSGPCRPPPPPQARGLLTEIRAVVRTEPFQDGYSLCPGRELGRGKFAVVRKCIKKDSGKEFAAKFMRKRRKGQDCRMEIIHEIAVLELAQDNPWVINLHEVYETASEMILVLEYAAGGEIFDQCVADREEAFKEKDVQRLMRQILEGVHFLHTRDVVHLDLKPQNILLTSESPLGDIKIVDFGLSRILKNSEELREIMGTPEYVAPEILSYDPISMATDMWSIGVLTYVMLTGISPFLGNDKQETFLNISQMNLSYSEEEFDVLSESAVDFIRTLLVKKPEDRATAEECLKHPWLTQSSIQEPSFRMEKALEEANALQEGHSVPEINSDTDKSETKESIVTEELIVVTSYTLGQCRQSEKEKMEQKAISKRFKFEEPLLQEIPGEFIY

[18] = molecular target: T4, Serine/threonine-protein kinase 17A; experiment: Inhibition of DRAK1 (unknown origin) expressed in HEK293 cells by NanoLuc-luciferase reporter based intracellular ATP competitiveness assay; format: cell-based

Receptor-interacting serine/threonine-protein kinase 2, sequence (O43353 whole entry): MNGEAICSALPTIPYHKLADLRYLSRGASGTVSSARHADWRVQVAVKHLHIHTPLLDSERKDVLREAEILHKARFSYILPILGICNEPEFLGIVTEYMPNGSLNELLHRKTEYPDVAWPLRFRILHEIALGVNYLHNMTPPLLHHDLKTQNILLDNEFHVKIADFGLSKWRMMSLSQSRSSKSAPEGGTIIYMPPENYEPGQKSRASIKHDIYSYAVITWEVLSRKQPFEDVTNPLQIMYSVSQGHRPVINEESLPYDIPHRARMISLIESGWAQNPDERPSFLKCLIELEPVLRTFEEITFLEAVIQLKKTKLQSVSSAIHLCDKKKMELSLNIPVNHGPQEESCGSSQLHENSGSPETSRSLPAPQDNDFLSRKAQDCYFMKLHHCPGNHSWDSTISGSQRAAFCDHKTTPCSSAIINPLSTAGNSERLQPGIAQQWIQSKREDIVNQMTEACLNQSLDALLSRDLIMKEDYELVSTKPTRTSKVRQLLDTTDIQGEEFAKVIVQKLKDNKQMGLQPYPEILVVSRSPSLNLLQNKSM
Mitogen-activated protein kinase kinase kinase 9, sequence (P80192 whole entry): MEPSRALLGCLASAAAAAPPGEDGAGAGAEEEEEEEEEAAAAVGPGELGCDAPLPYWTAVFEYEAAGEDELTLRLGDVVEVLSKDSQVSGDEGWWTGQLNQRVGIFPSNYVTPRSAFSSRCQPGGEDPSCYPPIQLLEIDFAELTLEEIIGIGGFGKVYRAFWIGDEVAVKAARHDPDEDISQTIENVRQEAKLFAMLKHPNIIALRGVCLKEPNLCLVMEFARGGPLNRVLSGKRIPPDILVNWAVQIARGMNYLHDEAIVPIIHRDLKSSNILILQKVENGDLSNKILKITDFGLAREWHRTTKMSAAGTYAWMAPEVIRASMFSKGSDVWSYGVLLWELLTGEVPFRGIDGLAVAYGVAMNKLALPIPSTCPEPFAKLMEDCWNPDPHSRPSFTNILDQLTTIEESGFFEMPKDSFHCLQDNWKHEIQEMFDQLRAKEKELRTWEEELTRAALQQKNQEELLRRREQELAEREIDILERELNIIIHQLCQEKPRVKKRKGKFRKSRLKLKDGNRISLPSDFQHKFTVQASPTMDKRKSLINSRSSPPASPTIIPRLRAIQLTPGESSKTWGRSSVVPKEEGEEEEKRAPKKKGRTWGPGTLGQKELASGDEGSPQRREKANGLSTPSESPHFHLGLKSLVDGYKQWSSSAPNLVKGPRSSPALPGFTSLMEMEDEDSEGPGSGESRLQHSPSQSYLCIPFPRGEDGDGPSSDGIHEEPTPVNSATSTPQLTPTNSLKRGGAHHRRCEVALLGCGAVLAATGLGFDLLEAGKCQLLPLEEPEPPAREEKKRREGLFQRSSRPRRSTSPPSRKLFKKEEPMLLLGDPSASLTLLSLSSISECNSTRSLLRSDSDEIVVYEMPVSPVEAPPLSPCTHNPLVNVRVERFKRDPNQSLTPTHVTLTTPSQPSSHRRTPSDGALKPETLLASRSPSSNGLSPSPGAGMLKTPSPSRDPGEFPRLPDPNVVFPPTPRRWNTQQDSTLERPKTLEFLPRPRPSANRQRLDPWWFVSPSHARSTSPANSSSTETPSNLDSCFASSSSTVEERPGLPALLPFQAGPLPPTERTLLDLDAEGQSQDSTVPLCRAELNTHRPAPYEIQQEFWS
Aurora kinase B, sequence (Q96GD4 whole entry): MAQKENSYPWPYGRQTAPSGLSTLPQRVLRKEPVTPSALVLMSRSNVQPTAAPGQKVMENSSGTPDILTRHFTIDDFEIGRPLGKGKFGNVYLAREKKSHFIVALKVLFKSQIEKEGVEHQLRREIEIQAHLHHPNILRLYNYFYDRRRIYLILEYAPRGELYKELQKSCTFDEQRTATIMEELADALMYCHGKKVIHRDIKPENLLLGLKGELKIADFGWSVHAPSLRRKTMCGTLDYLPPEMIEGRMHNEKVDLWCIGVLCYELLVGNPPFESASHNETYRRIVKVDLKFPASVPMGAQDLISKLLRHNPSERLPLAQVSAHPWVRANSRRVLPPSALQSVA
Serine/threonine-protein kinase pim-2, sequence (Q9P1W9 whole entry): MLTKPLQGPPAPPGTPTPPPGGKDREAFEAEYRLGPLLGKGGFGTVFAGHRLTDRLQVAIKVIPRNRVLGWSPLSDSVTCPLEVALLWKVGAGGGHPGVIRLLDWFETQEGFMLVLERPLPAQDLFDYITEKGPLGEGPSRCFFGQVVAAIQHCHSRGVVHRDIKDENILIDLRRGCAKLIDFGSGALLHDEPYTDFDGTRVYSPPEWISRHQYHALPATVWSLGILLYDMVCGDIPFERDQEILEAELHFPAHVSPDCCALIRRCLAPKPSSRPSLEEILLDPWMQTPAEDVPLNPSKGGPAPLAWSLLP
Serine/threonine-protein kinase pim-1, sequence (P11309 whole entry): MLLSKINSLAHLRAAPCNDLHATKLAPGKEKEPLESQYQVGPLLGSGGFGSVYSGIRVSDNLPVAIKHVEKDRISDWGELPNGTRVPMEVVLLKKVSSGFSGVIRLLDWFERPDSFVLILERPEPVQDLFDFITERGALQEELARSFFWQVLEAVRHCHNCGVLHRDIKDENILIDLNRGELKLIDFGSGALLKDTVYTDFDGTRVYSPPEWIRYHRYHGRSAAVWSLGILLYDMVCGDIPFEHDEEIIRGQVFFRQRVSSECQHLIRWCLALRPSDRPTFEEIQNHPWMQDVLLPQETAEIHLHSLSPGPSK
Mitogen-activated protein kinase kinase kinase 11, sequence (Q16584 whole entry): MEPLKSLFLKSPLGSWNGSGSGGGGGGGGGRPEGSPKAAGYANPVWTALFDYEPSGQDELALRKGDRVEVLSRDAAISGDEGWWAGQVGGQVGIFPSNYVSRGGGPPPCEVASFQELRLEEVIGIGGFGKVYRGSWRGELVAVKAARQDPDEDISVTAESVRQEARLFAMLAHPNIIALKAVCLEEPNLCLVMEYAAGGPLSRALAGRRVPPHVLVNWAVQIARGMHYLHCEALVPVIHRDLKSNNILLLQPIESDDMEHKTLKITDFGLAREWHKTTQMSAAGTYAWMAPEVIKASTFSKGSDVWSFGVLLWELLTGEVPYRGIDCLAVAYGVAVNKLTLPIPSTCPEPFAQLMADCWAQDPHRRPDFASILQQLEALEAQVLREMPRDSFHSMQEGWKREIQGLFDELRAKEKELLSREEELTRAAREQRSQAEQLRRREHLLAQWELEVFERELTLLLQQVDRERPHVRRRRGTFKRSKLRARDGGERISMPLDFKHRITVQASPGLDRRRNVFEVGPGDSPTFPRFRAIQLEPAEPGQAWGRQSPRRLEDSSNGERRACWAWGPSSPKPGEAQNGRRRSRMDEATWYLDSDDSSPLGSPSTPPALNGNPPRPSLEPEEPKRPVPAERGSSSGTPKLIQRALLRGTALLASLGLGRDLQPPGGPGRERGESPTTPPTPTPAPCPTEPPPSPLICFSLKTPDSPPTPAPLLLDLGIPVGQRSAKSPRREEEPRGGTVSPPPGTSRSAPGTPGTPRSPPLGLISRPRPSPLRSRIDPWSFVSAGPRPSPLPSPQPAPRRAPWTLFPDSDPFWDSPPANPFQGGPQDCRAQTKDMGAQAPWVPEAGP
Serine/threonine-protein kinase SIK3, sequence (Q9Y2K2 whole entry): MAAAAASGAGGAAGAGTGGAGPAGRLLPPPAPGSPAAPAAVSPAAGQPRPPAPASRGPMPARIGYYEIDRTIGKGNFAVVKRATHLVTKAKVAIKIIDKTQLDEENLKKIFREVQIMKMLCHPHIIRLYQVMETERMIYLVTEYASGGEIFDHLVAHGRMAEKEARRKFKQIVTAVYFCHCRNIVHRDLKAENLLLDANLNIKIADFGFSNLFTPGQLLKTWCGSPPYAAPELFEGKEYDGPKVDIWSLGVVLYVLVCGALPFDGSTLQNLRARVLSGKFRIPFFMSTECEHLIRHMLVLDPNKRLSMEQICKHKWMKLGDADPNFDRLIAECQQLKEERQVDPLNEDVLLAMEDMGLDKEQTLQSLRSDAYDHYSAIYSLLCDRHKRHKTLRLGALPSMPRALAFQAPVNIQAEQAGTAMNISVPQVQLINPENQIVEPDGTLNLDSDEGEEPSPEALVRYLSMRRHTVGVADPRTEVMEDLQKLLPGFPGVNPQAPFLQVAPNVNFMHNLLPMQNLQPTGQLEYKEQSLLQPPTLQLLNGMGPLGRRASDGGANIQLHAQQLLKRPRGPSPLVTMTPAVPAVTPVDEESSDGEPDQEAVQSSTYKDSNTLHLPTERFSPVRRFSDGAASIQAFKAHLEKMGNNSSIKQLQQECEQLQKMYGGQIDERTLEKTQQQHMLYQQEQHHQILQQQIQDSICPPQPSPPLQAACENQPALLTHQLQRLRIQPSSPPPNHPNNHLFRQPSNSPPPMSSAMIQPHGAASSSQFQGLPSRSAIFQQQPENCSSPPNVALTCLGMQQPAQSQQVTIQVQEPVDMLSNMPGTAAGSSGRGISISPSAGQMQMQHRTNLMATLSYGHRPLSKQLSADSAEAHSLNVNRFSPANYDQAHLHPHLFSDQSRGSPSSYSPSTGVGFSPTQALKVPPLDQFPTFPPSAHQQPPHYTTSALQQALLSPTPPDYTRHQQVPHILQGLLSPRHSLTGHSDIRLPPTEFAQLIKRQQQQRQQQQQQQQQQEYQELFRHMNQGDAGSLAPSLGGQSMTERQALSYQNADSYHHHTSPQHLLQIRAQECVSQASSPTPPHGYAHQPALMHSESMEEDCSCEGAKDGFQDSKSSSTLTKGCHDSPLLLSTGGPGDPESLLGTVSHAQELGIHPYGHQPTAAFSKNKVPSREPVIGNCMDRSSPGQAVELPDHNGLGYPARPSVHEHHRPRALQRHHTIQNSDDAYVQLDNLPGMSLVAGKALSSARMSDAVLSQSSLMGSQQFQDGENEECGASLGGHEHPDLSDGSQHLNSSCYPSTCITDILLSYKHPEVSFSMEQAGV

Structure (SMILES)	IC50 [1] [µM]	IC50 [2] [µM]	IC50 [3] [µM]	IC50 [4] [µM]	IC50 [5] [nM]	IC50 [6] [nM]	IC50 [7] [µM]	IC50 [8] [µM]	IC50 [9] [µM]	IC50 [10] [µM]	IC50 [11] [nM]	IC50 [12] [µM]	IC50 [13] [nM]	IC50 [14] [µM]	IC50 [15] [µM]	IC50 [16] [nM]	IC50 [17] [µM]	IC50 [18] [µM]
COc1cc2c(-c3cnc(-c4ccc[nH]4)o3)c[nH]c2cc1Br	7.1	11	1.1	1.2	200	800	9.8	7.1	> 10	> 10	1200	22	600	9.9	4.4	600		
COc1cc(Br)cc2[nH]cc(-c3cnc(-c4ccc(Br)[nH]4)o3)c12	> 10	> 10	> 10	> 10	> 10000	> 10000	> 10	> 10	> 10	> 10	> 10000	> 10	> 10000	> 10	> 10	> 10000	> 10	> 10
COc1cc(Br)cc2[nH]cc(-c3cnc(-c4ccc[nH]4)o3)c12	> 10	22	> 10	> 10	900	900	> 10	> 10	> 10	> 10	1000	> 10	500	> 10	> 10	900	9.6	> 10
COc1cc(Br)cc2[nH]cc(-c3oc(-c4ccc[nH]4)nc3I)c12	> 10	> 10	> 10	> 10	> 10000	> 10000	> 10	> 10	> 10	> 10	> 10000	> 10	> 10000	> 10	> 10	> 10000	> 10	> 10
